Laboratory results from ChEMBL document CHEMBL4428102, “Discovery of an Orally Bioavailable Gonadotropin-Releasing Hormone Receptor Antagonist” (J Med Chem, 2016).
Calls of active or inactive are those of the source. The rule behind the calls is not given here.

Experiments:
[1] = target: T1, Gonadotropin-releasing hormone receptor (Homo sapiens, UniProt P30968); experiment: Displacement of [125I]D-Trp6-LHRH from human GnRH receptor expressed in CHO-K1 cell membranes incubated for 1 hr by competitive binding assay
T1 sequence (P30968 whole entry): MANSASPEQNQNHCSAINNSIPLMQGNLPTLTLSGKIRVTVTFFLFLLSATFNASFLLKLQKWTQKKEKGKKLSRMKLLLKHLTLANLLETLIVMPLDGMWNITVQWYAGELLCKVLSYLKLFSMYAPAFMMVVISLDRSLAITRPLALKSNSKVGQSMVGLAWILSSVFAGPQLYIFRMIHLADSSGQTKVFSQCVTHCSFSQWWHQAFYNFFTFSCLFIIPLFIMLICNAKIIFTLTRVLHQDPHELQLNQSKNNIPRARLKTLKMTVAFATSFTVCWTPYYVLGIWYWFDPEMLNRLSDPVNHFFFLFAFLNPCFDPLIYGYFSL

[2] = target: T1, Gonadotropin-releasing hormone receptor; experiment: Antagonist activity against human GnRH receptor expressed in HEK293 cells co-transfected with pGL4-NFAT promoter AP1-luc assessed as inhibition of 20 nM GnRH-induced NFAT activation pre-incubated for 1 hr before GnRH stimulation and measured after 6 hrs by luciferase reporter gene assay; format: cell-based
CYP3A4 = CYP3A4 (Homo sapiens, UniProt P08684); experiment: Inhibition of human recombinant CYP3A4 expressed in baculosomes at 10 uM incubated for 30 mins using BOMR substrate by fluorescence based assay; format: ADME; conditions: probe BOMR
[3] = target: T2, Gonadotropin-releasing hormone receptor (Macaca mulatta, UniProt Q8SPZ1); experiment: Displacement of [125I]D-Trp6-LHRH from monkey GnRH receptor expressed in HEK293 cell membranes incubated for 1 hr by competitive binding assay
T2 sequence (Q8SPZ1 whole entry): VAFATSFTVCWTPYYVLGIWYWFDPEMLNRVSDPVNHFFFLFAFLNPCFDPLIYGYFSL

[4] = target: T3, Gonadotropin-releasing hormone receptor (Rattus norvegicus, UniProt P30969); experiment: Displacement of [125I]D-Trp6-LHRH from rat GnRH receptor expressed in HEK293 cell membranes incubated for 1 hr by competitive binding assay
T3 sequence (P30969 whole entry): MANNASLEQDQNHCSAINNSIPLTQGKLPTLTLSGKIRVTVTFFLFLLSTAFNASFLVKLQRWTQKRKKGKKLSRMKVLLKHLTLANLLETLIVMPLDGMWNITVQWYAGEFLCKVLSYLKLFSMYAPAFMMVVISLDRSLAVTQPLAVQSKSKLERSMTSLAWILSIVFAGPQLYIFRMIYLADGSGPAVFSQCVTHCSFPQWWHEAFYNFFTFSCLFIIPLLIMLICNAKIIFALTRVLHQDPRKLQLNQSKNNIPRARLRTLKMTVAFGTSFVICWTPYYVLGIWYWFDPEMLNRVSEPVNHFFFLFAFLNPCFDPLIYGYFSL

[5] = target: T1, Gonadotropin-releasing hormone receptor; experiment: Antagonist activity against human GnRH receptor expressed in HEK293 cells co-transfected with pGL4-NFAT promoter AP1-luc assessed as inhibition of 1 nM GnRH-induced NFAT activation pre-incubated for 1 hr before GnRH stimulation and measured after 6 hrs by luciferase reporter gene assay; format: cell-based
[6] = target: T2, Gonadotropin-releasing hormone receptor; experiment: Antagonist activity against monkey GnRH receptor expressed in HEK293 cells co-transfected with pGL4-NFAT promoter AP1-luc assessed as inhibition of 10 nM GnRH-induced NFAT activation pre-incubated for 1 hr before GnRH stimulation and measured after 6 hrs by luciferase reporter gene assay; format: cell-based
[7] = target: T3, Gonadotropin-releasing hormone receptor; experiment: Antagonist activity against rat GnRH receptor expressed in HEK293 cells co-transfected with pGL4-NFAT promoter AP1-luc assessed as inhibition of 1 nM GnRH-induced NFAT activation pre-incubated for 1 hr before GnRH stimulation and measured after 6 hrs by luciferase reporter gene assay; format: cell-based
[8] = target: T1, Gonadotropin-releasing hormone receptor; experiment: Antagonist activity against human GnRH receptor expressed in HEK293 cells assessed as reduction in ERK1/2 phosphorylation pre-incubated for 5 mins before LHRH stimulation for 5 mins by chemiluminescence based assay; format: cell-based
[9] = target: T1, Gonadotropin-releasing hormone receptor; experiment: Antagonist activity against human GnRH receptor expressed in […] assessed as inhibition of LHRH-induced calcium flux by FLIPR assay; format: functional, cell-based
[10] = Selectivity index, ratio of IC50 for antagonist activity against monkey GnRH receptor expressed in HEK293 cells to IC50 for antagonist activity against human GnRH receptor expressed in HEK293 cells; format: cell-based
[11] = Selectivity index, ratio of IC50 for antagonist activity against rat GnRH receptor expressed in HEK293 cells to IC50 for antagonist activity against human GnRH receptor expressed in HEK293 cells; format: cell-based
Cynomolgus monkey [12] = experiment: Reduction in serum LH level in castrated male cynomolgus monkey at 30 mg/kg, po administered as single dose after 12 to 24 hrs by RIA method; format: functional, organism-based; conditions: Macaca fascicularis
[13] = Cmax in Sprague-Dawley rat at 10 mg/kg, po by mass spectrometry; format: ADME, organism-based; set-up: dose 10 mg/kg, route oral; conditions: in vivo
[14] = Cmax in beagle dog at 10 mg/kg, po by mass spectrometry; format: ADME, organism-based, Canis lupus familiaris; set-up: dose 10 mg/kg, route oral; conditions: in vivo
[15] = Cmax in castrated cynomolgus monkey at 10 mg/kg, po by mass spectrometry; format: ADME, organism-based, Macaca fascicularis; set-up: dose 10 mg/kg, route oral; conditions: male, in vivo
[16] = Tmax in Sprague-Dawley rat at 10 mg/kg, po by mass spectrometry; format: ADME, organism-based; conditions: in vivo
[17] = Tmax in beagle dog at 10 mg/kg, po by mass spectrometry; format: ADME, organism-based, Canis lupus familiaris; conditions: in vivo
[18] = Tmax in castrated cynomolgus monkey at 10 mg/kg, po by mass spectrometry; format: ADME, organism-based, Macaca fascicularis; conditions: male, in vivo
[19] = Half life in Sprague-Dawley rat at 10 mg/kg, po by mass spectrometry; format: ADME, organism-based; conditions: in vivo
[20] = Half life in beagle dog at 10 mg/kg, po by mass spectrometry; format: ADME, organism-based, Canis lupus familiaris; conditions: in vivo
[21] = Half life in castrated cynomolgus monkey at 10 mg/kg, po by mass spectrometry; format: ADME, organism-based, Macaca fascicularis; conditions: male, in vivo
[22] = AUC (infinity) in Sprague-Dawley rat at 10 mg/kg, po by mass spectrometry; format: ADME, organism-based; set-up: dose 10 mg/kg, route oral, time infinity; conditions: in vivo
[23] = AUC (infinity) in beagle dog at 10 mg/kg, po by mass spectrometry; format: ADME, organism-based, Canis lupus familiaris; set-up: dose 10 mg/kg, time infinity, route oral; conditions: in vivo
[24] = AUC (infinity) in castrated cynomolgus monkey at 10 mg/kg, po by mass spectrometry; format: ADME, organism-based, Macaca fascicularis; set-up: dose 10 mg/kg, route oral, time infinity; conditions: male, in vivo
[25] = Oral bioavailability in Sprague-Dawley rat at 10 mg/kg by mass spectrometry; format: ADME, organism-based; conditions: in vivo
[26] = Oral bioavailability in beagle dog at 10 mg/kg by mass spectrometry; format: ADME, organism-based, Canis lupus familiaris; conditions: in vivo
[27] = Oral bioavailability in castrated cynomolgus monkey at 10 mg/kg by mass spectrometry; format: ADME, organism-based, Macaca fascicularis; conditions: male, in vivo
Cynomolgus monkey [28] = experiment: Reduction in serum LH level in castrated male cynomolgus monkey at 30 mg/kg, po administered as single dose after 12 hrs by RIA method; format: functional; conditions: Macaca fascicularis
[29] = AUC in castrated male cynomolgus monkey at 30 mg/kg, po administered as single dose; format: ADME, organism-based, Macaca fascicularis; conditions: in vivo
[30] = Cmax in castrated male cynomolgus monkey at 30 mg/kg, po administered as single dose; format: ADME, organism-based, Macaca fascicularis; set-up: dose 30 mg/kg, route oral; conditions: in vivo
Cynomolgus monkey [31] = experiment: Reduction in serum LH level in castrated male cynomolgus monkey at 30 mg/kg, po administered as single dose after 24 hrs by RIA method; format: functional; conditions: Macaca fascicularis

Chain of CYP3A4 (P08684 whole entry): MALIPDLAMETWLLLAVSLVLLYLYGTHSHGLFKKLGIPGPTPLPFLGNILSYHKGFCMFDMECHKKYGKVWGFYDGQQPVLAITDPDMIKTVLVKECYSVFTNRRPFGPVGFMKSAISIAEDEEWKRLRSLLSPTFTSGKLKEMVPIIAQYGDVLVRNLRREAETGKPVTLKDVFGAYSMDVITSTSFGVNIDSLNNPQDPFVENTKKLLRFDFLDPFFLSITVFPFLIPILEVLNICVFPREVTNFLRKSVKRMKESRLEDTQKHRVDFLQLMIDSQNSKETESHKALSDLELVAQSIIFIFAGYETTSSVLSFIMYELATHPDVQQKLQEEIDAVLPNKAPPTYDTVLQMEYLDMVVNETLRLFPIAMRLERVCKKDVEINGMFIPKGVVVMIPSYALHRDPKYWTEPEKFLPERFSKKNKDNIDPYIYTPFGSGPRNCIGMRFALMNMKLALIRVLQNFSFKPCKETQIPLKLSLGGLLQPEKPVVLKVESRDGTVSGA

Row | Compound | IC50 [1] [nM] | IC50 [2] [nM] | inhibition at 0.5 h, 10 µM (CYP3A4) [%] | further results
1 | Cc1c(N2CCN(Cc3cccc(C(N)=O)c3)CC2)c(=O)n(C[C@H](N)c2ccccc2)c(=O)n1Cc1c(F)cccc1C(F)(F)F | 1.95 | 86.5 | 93 | –
2 | Cc1c(N2CCN(Cc3cccc(C(=O)NCCCC(=O)O)c3)CC2)c(=O)n(C[C@H](N)c2ccccc2)c(=O)n1Cc1c(F)cccc1C(F)(F)F | 1.1 | 376 | 66 | –
3 | Cc1c(N2CCN(Cc3ccc(C(F)(F)F)o3)CC2)c(=O)n(C[C@H](NCCCC(=O)O)c2ccccc2)c(=O)n1Cc1c(F)cccc1C(F)(F)F [listing 2 of 2 here] | – | – | – | Ratio IC50 [10]: 2; Ratio IC50 [11]: 44; inhibition (Cynomolgus monkey [12]): Active
4 | Cc1c(N2CCN(Cc3ccc(C(F)(F)F)o3)CC2)c(=O)n(C[C@H](NCCCP(=O)(O)O)c2ccccc2)c(=O)n1Cc1c(F)cccc1C(F)(F)F | 1.2 | 411 | 16 | –
5 | CCOP(=O)(O)CCCN[C@@H](Cn1c(=O)c(N2CCN(Cc3ccc(C(F)(F)F)o3)CC2)c(C)n(Cc2c(F)cccc2C(F)(F)F)c1=O)c1ccccc1 | 1.8 | 184 | 45 | –
6 | Cc1c(N2CCN(Cc3cccc(C(=O)NCC(=O)O)c3)CC2)c(=O)n(C[C@H](N)c2ccccc2)c(=O)n1Cc1c(F)cccc1C(F)(F)F | > 10 | > 300 | 74 | –
7 | Cc1c(N2CCN(Cc3ccc(C(F)(F)F)o3)CC2)c(=O)n(C[C@H](NCCCS(=O)(=O)O)c2ccccc2)c(=O)n1Cc1c(F)cccc1C(F)(F)F | 1.1 | 122 | 45 | –
8 | Cc1c(N2CCN(Cc3cccc([N+](=O)[O-])c3)CC2)c(=O)n(C[C@H](NCCCC(=O)O)c2ccccc2)c(=O)n1Cc1c(F)cccc1C(F)(F)F | 1.42 | 60 | 17 | –
9 | Cc1c(N2CCN(Cc3cccc(C(=O)NCCC(=O)O)c3)CC2)c(=O)n(C[C@H](N)c2ccccc2)c(=O)n1Cc1c(F)cccc1C(F)(F)F | 1.2 | 146 | 72 | –
10 | Cc1c(N2CCN(Cc3cncs3)CC2)c(=O)n(C[C@H](N)c2ccccc2)c(=O)n1Cc1c(F)cccc1C(F)(F)F | 8.94 | 930 | – | –
11 | Cc1c(N2CCN(Cc3ccon3)CC2)c(=O)n(C[C@H](N)c2ccccc2)c(=O)n1Cc1c(F)cccc1C(F)(F)F | 14.1 | > 1000 | – | –
12 | Cc1c(N2CCN(Cc3ccc(C(F)(F)F)o3)CC2)c(=O)n(C[C@H](NCCCC(=O)O)c2ccccc2)c(=O)n1Cc1c(F)cccc1C(F)(F)F.Cl | – | – | – | Cmax [13]: 500 ng/mL; Cmax [14]: 2700 ng/mL; Cmax [15]: 300 ng/mL; Tmax [16]: 1.6 h; Tmax [17]: 1.3 h; Tmax [18]: 1.7 h; half-life [19]: 1.9 h; half-life [20]: 1.7 h; half-life [21]: 3.5 h; AUC(0-inf) [22]: 1500 ng·h/mL; AUC(0-inf) [23]: 9600 ng·h/mL; AUC(0-inf) [24]: 1300 ng·h/mL; bioavailability [25]: 15.6%; bioavailability [26]: 52.6%; bioavailability [27]: 13.2%; inhibition in vivo at 30 mg/kg (Cynomolgus monkey [28]): 84%; AUC [29]: 37000 ng·h/mL; Cmax [30]: 5500 ng/mL; inhibition in vivo at 30 mg/kg (Cynomolgus monkey [31]): 76%
13 | Cc1c(N2CCN(Cc3cocn3)CC2)c(=O)n(C[C@H](N)c2ccccc2)c(=O)n1Cc1c(F)cccc1C(F)(F)F | 7.01 | > 1000 | – | –

Second part, led by results:

Row | IC50 [1] [nM] | IC50 [2] [nM] | inhibition at 0.5 h, 10 µM (CYP3A4) [%] | Compound | further results
14 | 0.95 | 12.6 | 96 | Cc1c(N2CCN(Cc3ccc(C(F)(F)F)o3)CC2)c(=O)n(C[C@H](N)c2ccccc2)c(=O)n1Cc1c(F)cccc1C(F)(F)F | –
15 | 0.44 to 0.46 | 13 | 21 | Cc1c(N2CCN(Cc3ccc(C(F)(F)F)o3)CC2)c(=O)n(C[C@H](NCCCC(=O)O)c2ccccc2)c(=O)n1Cc1c(F)cccc1C(F)(F)F [listing 1 of 2 here] | IC50 [3]: 3.7 nM; IC50 [4]: 520 nM; IC50 [5]: 6.32 nM; IC50 [6]: 13.2 nM; IC50 [7]: 279 nM; IC50 [8]: 2.9 nM; IC50 [9]: 0.76 nM
16 | 0.45 | 102 to 155 | 89 | Cc1c(N2CCN(Cc3cccc([N+](=O)[O-])c3)CC2)c(=O)n(C[C@H](N)c2ccccc2)c(=O)n1Cc1c(F)cccc1C(F)(F)F | –
17 | 0.68 | 49.5 | 22 | Cc1c(N2CCN(Cc3cccc(C(F)(F)F)c3)CC2)c(=O)n(C[C@H](NCCCC(=O)O)c2ccccc2)c(=O)n1Cc1c(F)cccc1C(F)(F)F | –
18 | 0.33 to 0.52 | 27.9 | 96 | Cc1c(N2CCN(Cc3cccc(C(F)(F)F)c3)CC2)c(=O)n(C[C@H](N)c2ccccc2)c(=O)n1Cc1c(F)cccc1C(F)(F)F | –
19 | 0.14 | 26.9 | 57 | Cc1c(N2CCN(Cc3cccc([N+](=O)[O-])c3)CC2)c(=O)n(C[C@H](N)c2ccccc2OCCCC(=O)O)c(=O)n1Cc1c(F)cccc1C(F)(F)F | –
20 | 0.23 | 27.7 | 30 | Cc1c(N2CCN(Cc3cccc([N+](=O)[O-])c3)CC2)c(=O)n(C[C@H](N)c2ccccc2OCC(=O)O)c(=O)n1Cc1c(F)cccc1C(F)(F)F | –
21 | 0.17 | 89.3 | 97 | Cc1c(N2CCN(Cc3cccc([N+](=O)[O-])c3)CC2)c(=O)n(C[C@H](N)c2ccccc2O)c(=O)n1Cc1c(F)cccc1C(F)(F)F | –
